# Measured values: paper PMC6366094, “Suppression of Myeloid Cell Arginase Activity leads to Therapeutic Response in a NSCLC Mouse Model by Activating Anti-Tumor Immunity” (Journal for Immunotherapy of Cancer, 2019)
# Columns and labels:
# [1] = molecular target: T1, human ARG2 (arginase 2) (Homo sapiens, UniProt P78540); test: enzymatic arginase inhibition assay (data not shown); type: biochemical
# T1 sequence (P78540 23-354): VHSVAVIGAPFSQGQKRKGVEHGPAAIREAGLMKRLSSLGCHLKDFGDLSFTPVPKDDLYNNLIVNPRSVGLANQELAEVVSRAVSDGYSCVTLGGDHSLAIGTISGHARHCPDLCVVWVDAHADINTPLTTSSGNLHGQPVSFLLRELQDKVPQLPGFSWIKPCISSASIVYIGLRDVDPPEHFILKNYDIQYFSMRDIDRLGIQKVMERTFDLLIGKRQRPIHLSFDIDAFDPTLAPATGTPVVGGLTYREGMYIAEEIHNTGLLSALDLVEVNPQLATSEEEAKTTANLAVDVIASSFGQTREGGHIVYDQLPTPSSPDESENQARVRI
# [2] = molecular target: T2, human ARG1 (arginase 1) (Homo sapiens, UniProt P05089); test: as above; type: biochemical
# T2 sequence (P05089 1-322): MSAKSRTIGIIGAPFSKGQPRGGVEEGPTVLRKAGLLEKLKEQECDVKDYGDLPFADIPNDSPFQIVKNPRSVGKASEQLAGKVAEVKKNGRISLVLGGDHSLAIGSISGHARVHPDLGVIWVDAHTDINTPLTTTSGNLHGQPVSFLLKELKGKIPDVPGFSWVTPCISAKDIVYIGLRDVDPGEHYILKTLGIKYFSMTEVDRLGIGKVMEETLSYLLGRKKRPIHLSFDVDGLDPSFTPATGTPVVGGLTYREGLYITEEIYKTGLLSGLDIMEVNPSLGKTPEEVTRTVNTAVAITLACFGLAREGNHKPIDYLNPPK
compound,measurement,setting,value
"N[C@](CCCCB(O)O)(CCN1CCCCC1)C(=O)O [compound 9, (R)-2-amino-6-borono-2-(2-(piperidin-1-yl)ethyl) hexanoic acid]",IC50,[1],2700 nM
same,IC50,[2],1100 nM
